The results in this text go back to patent US8053459B1, “Selenolopyrazole derivatives and use thereof as anticancer agents” (China Medical University, priority 2010, dated 2011).

Usually melting point stands for the temperature, or range, at which the solid turns liquid.

In series [1] the test system is human lung cancer cell lines (NCI-H226). Put plainly: MTT cytotoxicity assay, NCI-H226. Format: cell-based. The following applies: for IC50: Homo sapiens, read-out: IC50 (concentration of 50% proliferation-inhibitory effect) NCI-H226, NCI-H226 cells, 48 h treatment, MTT, mean of three independent experiments; for potency in inhibiting proliferation of NCI-H226 human cancer cell line: summary statement on Table 1. On the procedure:
(§1) The human lung cancer cell lines (NCI-H226) and human renal cancer cell lines (A-498) were purchased from the ATCC (Manassas, Va.). The NCI-H226 and A498 cells were cultured in RPMI-1640 and DMEM medium (GIBCO) respectively, supplemented with 10% FBS, penicillin (100 unit/mL)/streptomycin (100 μg/mL) and 1% L-glutamine. All cells were grown in a humidified atmosphere containing 5% CO2 at 37° C. The cytotoxicity was assessed using 3-(4,5-dimethylthiazol-2-yl)-2,5-diphenyltetrazolium bromide (MTT) assay. NCI-H226 and A498 cells were seeded at 1×10^4 cells/well into 96-well plates. After 24 h incubation to allow for cell attachment, cells were treated with test compounds for 48 h. After treatment, cells were washed once with PBS and incubated with 1 mg/ml MTT (Sigma, St. Louis, Mo., USA) for 2 h. Then the formazan precipitate was dissolved in […] DMSO and the absorbance was measured on an ELISA reader at a best wavelength of 570 nm.

In series [2] the test system is human renal cancer cell lines (A-498). Nature of the series: MTT cytotoxicity assay, A498. It is filed as cell-based. The following applies: for IC50: Homo sapiens, read-out: IC50 (concentration of 50% proliferation-inhibitory effect) A498, A498 cells, 48 h treatment, MTT, mean of three independent experiments; for potency in inhibiting proliferation of A498 human cancer cell line: summary statement on Table 1. On the procedure: as §1
A general note: Tetrazolium assays rely on reduction of a dye to a coloured formazan, in cell work by metabolically active cells.

Regarding `O=C(O)CCC(=O)OCc1ccc(-c2nn(Cc3ccccc3)c3cc[se]c23)o1` [Compound 60, Succinic Acid mono-[5-(1-benzyl-selenolo[3,2-c]pyrazol-3-yl)furan-2-yl]methyl ester], the melting point was 111 to 114 °C. Further, in series [1], the IC50 turned out to be 2.2 µM and the “potency in inhibiting proliferation of NCI-H226 human cancer cell line” value is reported as “significant potency”. For the same compound, in series [2], the IC50 amounted to 0.8 µM and the “potency in inhibiting proliferation of A498 human cancer cell line” value is on record as “significant potency”.

Regarding `COC(=O)c1ccc(-c2nn(-c3ccccc3F)c3cc[se]c23)o1` [Compound 39, 3-(5-Methoxycarbonyl-2-furyl)-1-(2-fluorophenyl)selenolo-[3,2-c]pyrazole], the IC50 in series [1] and in series [2] was over 100 µM in each case.

Take `OCc1ccc(-c2nn(Cc3ccccc3)c3cc[se]c23)o1` [Compound 57, 1-Benzyl-3-(5-hydroxymethyl-2-furyl)selenolo[3,2-c]pyrazole]: the melting point was in the range of 126 to 129 °C. Further, in series [1], the IC50 came out at 1.4 µM and the “potency in inhibiting proliferation of NCI-H226 human cancer cell line” value is “significant potency”. Also, in series [2], the IC50 is 0.4 µM and the “potency in inhibiting proliferation of A498 human cancer cell line” value is given as “significant potency”.

For `COC(=O)c1ccc(-c2nn(Cc3ccccc3)c3cc[se]c23)o1` [Compound 55, 1-Benzyl-3-(5-methoxycarbonyl-2-furyl)selenolo[3,2-c]-pyrazole], the melting point lay within 130 to 131 °C.

In the case of `OCc1ccc(-c2nn(-c3ccccc3F)c3cc[se]c23)o1`, the melting point fell in the range of 178 to 181 °C.

In the case of `COC(=O)c1ccc(-c2nn(-c3ccccc3)c3cc(C)[se]c23)o1` [Compound 35, 3-(5-Methoxycarbonyl-2-furyl)-1-phenyl-5-methylselenolo-[3,2-c]pyrazole], the melting point lay in the range of 155 to 157 °C.

The compound `OCc1ccc(-c2nn(Cc3ccccc3)c3cc[se]c23)cc1` [Compound 69, 1-Benzyl-3-(p-hydroxymethylphenyl)selenolo[3,2-c]pyrazole] displayed a melting point of 158 to 160 °C.

`COC(=O)c1ccc(-c2nn(-c3ccccc3)c3cc[se]c23)cc1` [Compound 66, 1-Phenyl-3-(p-methoxycarbonylphenyl)selenolo[3,2-c]pyrazole] showed a melting point of 165 to 166 °C.

Consider `COC(=O)c1ccc(-c2nn(Cc3ccccc3)c3cc(C)[se]c23)o1` [Compound 56, 1-Benzyl-3-(5-methoxycarbonyl-2-furyl)-5-methylselenolo[3,2-c]pyrazole], for which the melting point was 142 to 145 °C.

With `COC(=O)c1ccc(-c2nn(-c3ccccc3)c3[se]ccc23)o1` [Compound 78, 3-(5-Methoxycarbonyl-2-furyl)-1-phenylselenolo[2,3-c]-pyrazole], the melting point was 167 to 169 °C. Besides, the IC50 in series [1] was over 100 µM. Moreover, the IC50 in series [2] was over 100 µM.

Turning to `Cc1cccc(-n2nc(-c3ccc(CO)o3)c3[se]ccc32)c1` [Compound 44, 3-(5-Hydroxymethyl-2-furyl)-1-5-methyl-phenylselenolo[3,2-c]pyrazole], in series [1], the IC50 was determined as 25 µM and the “potency in inhibiting proliferation of NCI-H226 human cancer cell line” value was “significant potency”. For the same compound, in series [2], the IC50 was 1.98 µM and the “potency in inhibiting proliferation of A498 human cancer cell line” value was “significant potency”.

In the case of `COC(=O)c1ccc(-c2nn(Cc3ccccc3)c3[se]ccc23)o1` [Compound 79, 1-Benzyl-3-(5-methoxycarbonyl-2-furyl)selenolo[2,3-c]pyrazole], the melting point fell in the range of 121 to 123 °C. In addition, the IC50 in series [1] is over 100 µM. Moreover, in series [2], the IC50 was over 100 µM.

`COC(=O)c1ccc(-c2nn(Cc3ccccc3)c3cc[se]c23)cc1` [Compound 67, 1-Benzyl-3-(p-methoxycarbonylphenyl)selenolo[3,2-c]pyrazole] displayed a melting point of 150 to 153 °C.

In the case of `Cc1cc2c([se]1)c(-c1ccc(CO)o1)nn2Cc1ccccc1` [Compound 58, 1-Benzyl-3-(5-hydroxymethyl-2-furyl)-5-methylselenolo[3,2-c]pyrazole], the melting point was 147 to 148 °C.

Compound `COC(=O)c1ccc(-c2nn(-c3ccccc3Cl)c3cc[se]c23)o1` [Compound 36, 3-(5-Methoxycarbonyl-2-furyl)-1-(2-chlorophenyl)selenolo-[3,2-c]pyrazole] had a melting point of 134 to 136 °C. In series [1], the IC50 was over 100 µM. In addition, the IC50 in series [2] was over 100 µM.

Take `O=C(O)c1ccc(-c2nn(Cc3ccccc3)c3cc[se]c23)o1` [Compound 59, 1-Benzyl-3-(5-hydroxycarbonyl-2-furyl)selenolo[3,2-c]pyrazole]: the melting point was 243 to 244 °C.

Take `COC(=O)c1ccc(-c2nn(-c3ccc(Cl)cc3)c3cc[se]c23)o1` [Compound 38, 3-(5-Methoxycarbonyl-2-furyl)-1-(4-chlorophenyl)selenolo-[3,2-c]pyrazole]: the melting point fell in the range of 146 to 148 °C. Also, the IC50 in series [1] is over 100 µM. The IC50 in series [2] is over 100 µM.

In turn, `COC(=O)c1ccc(-c2nn(-c3ccccc3)c3cc[se]c23)o1` [Compound 34, 3-(5-Methoxycarbonyl-2-furyl)-1-phenylselenolo[3,2-c]-pyrazole] displayed a melting point of 144 to 147 °C.

On to `OCc1ccc(-c2nn(-c3ccccc3)c3[se]ccc23)o1`, for which the melting point was in the range of 136 to 138 °C.

As to `COC(=O)c1ccc(-c2nn(-c3ccc(OC)cc3)c3cc[se]c23)o1` [Compound 42, 3-(5-Methoxycarbonyl-2-furyl)-1-(4-methoxyphenyl)selenolo-[3,2-c]pyrazole], the melting point is 89 to 92 °C. In series [1], the IC50 is over 100 µM. Moreover, the IC50 in series [2] is over 100 µM.

Compound `OCc1ccc(-c2nn(Cc3ccccc3)c3[se]ccc23)o1` [Compound 81, 1-Benzyl-3-(5-Hydroxymethyl-2-furyl)selenolo[2,3-c]pyrazole] returned a melting point of 130.2 to 131.3 °C. Besides, in series [1], the “potency in inhibiting proliferation of NCI-H226 human cancer cell line” value is on record as “significant potency”. In series [2], the IC50 came to 0.14 µM and the “potency in inhibiting proliferation of A498 human cancer cell line” value was “significant potency”.

In turn, `COC(=O)c1ccc(-c2nn(-c3cccc(Cl)c3)c3cc[se]c23)o1` [Compound 37, 3-(5-Methoxycarbonyl-2-furyl)-1-(3-chlorophenyl)selenolo-[3,2-c]pyrazole] had a melting point of 107 to 109 °C. For the same compound, the IC50 in series [1] is over 100 µM. For the same compound, the IC50 in series [2] was over 100 µM.

Compound `Cc1cc2c([se]1)c(-c1ccc(C(=O)O)o1)nn2-c1ccccc1` [Compound 49, 3-(5-Hydroxycarbonyl-2-furyl)-1-phenyl-5-methylselenolo[3,2-c]pyrazole] showed a melting point of 236 to 239 °C.

Regarding `O=C(O)c1ccc(-c2nn(-c3ccccc3)c3cc[se]c23)o1` [Compound 48, 3-(5-Hydroxycarbonyl-2-furyl)-1-phenylselenolo[3,2-c]pyrazole], the melting point was 234 to 237 °C.

Consider `OCc1ccc(-c2nn(-c3ccccc3)c3cc[se]c23)cc1` [Compound 68, 1-Phenyl-3-(p-hydroxymethylphenyl)selenolo[3,2-c]pyrazole], for which the melting point fell in the range of 133 to 134 °C.

As for `COC(=O)c1ccc(-c2nn(-c3ccc(F)cc3)c3cc[se]c23)o1` [Compound 40, 3-(5-Methoxycarbonyl-2-furyl)-1-(4-fluorophenyl)selenolo-[3,2-c]pyrazole], the IC50 in series [1] and in series [2] was over 100 µM each time.

`COC(=O)c1ccc(-c2nn(-c3ccccc3OC)c3cc[se]c23)o1` [Compound 41, 3-(5-Methoxycarbonyl-2-furyl)-1-(2-methoxyphenyl)selenolo-[3,2-c]pyrazole] showed a melting point of 72 to 76 °C. Also, in series [1], the IC50 was over 100 µM. Moreover, the IC50 in series [2] is over 100 µM.
